Results published in patent US8729254B2, “Derivative of glucose and vitamin F, compositions comprising it, uses and preparation process” (L'Oreal, priority 2002, dated 2014).
Values belong to the compound of their own block, whether it stands above or below them.

Key:
[1] = target: T1, purified soybean 15-lipoxygenase L1 (Glycine max, UniProt P08170); test: inhibition of purified soybean 15-lipoxygenase (oxymeter, Vmax of oxygen consumption); format: biochemical; settings: test compound at 1 mM, relative to the control (DMSO), 25° C., pH 7.5, average of 10 tests
T1 sequence (P08170 1-839): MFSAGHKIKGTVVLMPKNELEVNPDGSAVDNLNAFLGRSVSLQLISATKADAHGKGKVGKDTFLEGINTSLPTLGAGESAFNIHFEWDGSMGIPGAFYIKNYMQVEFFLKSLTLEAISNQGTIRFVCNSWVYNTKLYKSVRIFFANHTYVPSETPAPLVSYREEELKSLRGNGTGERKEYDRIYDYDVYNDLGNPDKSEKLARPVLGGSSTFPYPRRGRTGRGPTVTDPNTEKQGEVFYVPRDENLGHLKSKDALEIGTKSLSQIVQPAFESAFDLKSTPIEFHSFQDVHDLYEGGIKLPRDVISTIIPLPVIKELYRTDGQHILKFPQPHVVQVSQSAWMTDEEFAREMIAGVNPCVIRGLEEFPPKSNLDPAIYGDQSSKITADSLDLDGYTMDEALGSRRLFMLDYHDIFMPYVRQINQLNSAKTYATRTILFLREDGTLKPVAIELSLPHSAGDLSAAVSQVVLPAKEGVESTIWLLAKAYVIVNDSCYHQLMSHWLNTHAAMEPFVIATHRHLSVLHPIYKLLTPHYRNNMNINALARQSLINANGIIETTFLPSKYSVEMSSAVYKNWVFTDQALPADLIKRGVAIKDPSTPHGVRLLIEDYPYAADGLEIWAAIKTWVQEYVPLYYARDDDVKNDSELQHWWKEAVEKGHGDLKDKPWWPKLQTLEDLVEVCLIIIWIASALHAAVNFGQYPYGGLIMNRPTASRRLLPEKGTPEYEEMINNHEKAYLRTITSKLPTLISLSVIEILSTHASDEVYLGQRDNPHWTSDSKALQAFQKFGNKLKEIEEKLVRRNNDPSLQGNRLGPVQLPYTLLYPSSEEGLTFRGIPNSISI
Procedure: The effect of the compounds of disclosed herein on the inhibition of purified soybean 15-lipoxygenase was thus tested, given that soybean 15-lipoxygenase is a study model commonly used as a predictive model for human 5-lipoxygenase.
The test performed was as follows:
preparation of a 100 mM, pH 7.5 Tris buffer solution
preparation of a suspension of purified soybean 15-lipoxygenase L1 (0.20 mg/ml) in a pH 7.5100 mM Tris buffer; storage in ice;
calibration of the oxymeter, tank equipped with a magnetic stirring system and thermostatically maintained at 25° C.;
preparation of an aqueous-alcoholic solution (absolute ethanol/water, 5/95, v/v) of potassium arachidonate at a concentration of 7.5 mM;
preparation of a solution of the test compound at a concentration of 30 mM in dimethyl sulphoxide (DMSO);
introduction into the oxymeter tank, with stirring, of 456.6 μl of buffer solution, 16.7 μl of potassium arachidonate solution and 16.7 μl of solution of the test compound or 16.7 μl of DMSO in the case of the “control” measurement.
The recorder was switched on and 10 μl of suspension of 15-lipoxygenase was introduced into the tank.
The maximum rate of consumption of oxygen (Vmax) was recorded.
The various Vmax values were compared with that of the control and the results were expressed as a % thereof. The test was repeated 10 times and an average of these 10 tests were determined.

[2] = 0.1% by weight in ethanol/isopropanol/water (64/16/20 by volume), 45° C., 2 months; hydrolysed glucopyranose linoleate by HPLC
Procedure: The stability of the compounds disclosed herein were assessed (measured by the hydrolysis of the esters).
Solutions comprising 0.1% by weight of the compounds in an ethanol/isopropanol/water mixture (64/16/20 by volume) were prepared. These solutions were left in a chamber thermostatically maintained at 45° C. for 2 months.

Structure (SMILES): CCCCCCCCCCCCCCCCCC(=O)OC[C@H]1OC(O)[C@H](O)[C@@H](O)[C@@H]1O (stereo partly drawn) [Compound C, 6-O-octadecanoyl-D-glucopyranose]
inhibition at 1000 µM [1]: 49%

Structure (SMILES): CCCCCCCCCCCCCCCC(=O)OC[C@H]1OC(O)[C@H](O)[C@@H](O)[C@@H]1O (stereo partly drawn) [Compound D, 6-O-hexadecanoyl-D-glucopyranose]
inhibition at 1000 µM [1]: 15%

Second part, the compound after the results:

inhibition at 1000 µM [1]: 71% | % of hydrolysis [2]: 7%
Structure (SMILES): CCCCCC=CCC=CCCCCCCCC(=O)OC[C@H]1OC(O)[C@H](O)[C@@H](O)[C@@H]1O (stereo partly drawn) [Compound A, 6-O-octadeca-9,12-dienoyl-D-glucopyranose]

inhibition at 1000 µM [1]: 30%
Structure (SMILES): CCCCCCCCC=CCCCCCCCC(=O)OC[C@H]1OC(O)[C@H](O)[C@@H](O)[C@@H]1O (stereo partly drawn) [Compound B, 6-O-octadeca-9-enoyl-D-glucopyranose]

inhibition at 1000 µM [1]: 80% | % of hydrolysis [2]: 30%
Structure (SMILES): CCCCCC=CCC=CCCCCCCCC(=O)O[C@H]1[C@H](O)[C@@H](CO)OC(O)[C@@H]1O (stereo partly drawn) [Compound E, 3-O-octadeca-9,12-dienoyl-D-glucopyranose]
